Test: Plasma pharmacokinetics of the parent compound after a single oral dose of prodrug
Assay type: in vivo
Conditions: single oral dose 10 mg/kg, fasted male Sprague Dawley rats; plasma analyzed for the parent compound; study duration 8 h
Procedure, shortened: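 Three male Sprague Dawley rats, housed in metabolic cages and fasted about 15 hours, were weighed and received one oral gavage dose of 10 mg/kg as a solution in water or water/propylene glycol. Blood (approximately 500 μL) went into heparin tubes at set timepoints up to the study duration. Plasma was separated by centrifugation at 14,000 rpm for 3 min at 4° C, stored below −70° C, and assayed for the parent compound.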

Compound | AUC0-last hour (area under the curve)
C=Cc1cc(C(=O)Nc2ccc(C(=N)NC(=O)OCCCCCC)cc2)c(-c2ccc(C(=O)NCC3CC3)nc2C(=O)OC(C)OC(=O)C(C)C)cc1OC (stereo not drawn) [Compound 36b, 1-(isobutyryloxy)ethyl 6-((cyclopropylmethyl)carbamoyl)-3-(2-((4-(N-((hexyloxy)carbonyl)carbamimidoyl)phenyl)carbamoyl)-5-methoxy-4-vinylphenyl)picolinate] | C (C >10,000 ng/mL)
C=Cc1cc(C(=O)Nc2ccc(C(=N)NC(=O)OCCCCCC)cc2)c(-c2ccc(C(=O)NCC3CC3)nc2C(=O)OCCN2CCOCC2)cc1OC.Cl [Compound 6a, 2-morpholinoethyl 6-((cyclopropylmethyl)carbamoyl)-3-(2-((4-(N-((hexyloxy)carbonyl)carbamimidoyl)phenyl)carbamoyl)-5-methoxy-4-vinylphenyl)picolinate hydrochloride] | A (A = 0-1,000 ng/mL)
C=Cc1cc(C(=O)Nc2ccc(C(=N)NC(=O)OC(C)OC(=O)[C@@H](N)C(C)C)cc2)c(-c2ccc(C(=O)NCC3CC3)nc2C(=O)OC(C)OC(=O)C(C)C)cc1OC (stereo partly drawn) [Compound 55b, 1-(isobutyryloxy)ethyl 3-(2-((4-(N-((1-(((S)-2-amino-3-methylbutanoyl)oxy)ethoxy)carbonyl)carbamimidoyl)phenyl)carbamoyl)-5-methoxy-4-vinylphenyl)-6-((cyclopropylmethyl)carbamoyl)picolinate] | B (B = 1,001-10,000 ng/mL)
C=Cc1cc(C(=O)Nc2ccc(C(=N)NC(=O)OCC)cc2)c(-c2ccc(C(=O)NCC3CC3)nc2C(=O)OCc2oc(=O)oc2C)cc1OC [Compound 34a, (5-methyl-2-oxo-1,3-dioxol-4-yl)methyl 6-((cyclopropylmethyl)carbamoyl)-3-(2-((4-(N-(ethoxycarbonyl)carbamimidoyl)phenyl)carbamoyl)-5-methoxy-4-vinylphenyl)picolinate] | B (B = 1,001-10,000 ng/mL)
C=Cc1cc(C(=O)Nc2ccc(C(=N)N)cc2)c(-c2ccc(C(=O)NCC3CC3)nc2C(=O)OCOC(=O)CN)cc1OC.Cl [Compound 37e, (2-aminoacetoxy)methyl 3-(2-((4-carbamimidoylphenyl)carbamoyl)-5-methoxy-4-vinylphenyl)-6-((cyclopropylmethyl)carbamoyl)picolinate Hydrochloride] | B (B = 1,001-10,000 ng/mL)
C=Cc1cc(C(=O)Nc2ccc(C(=N)NC(=O)OCCCCCC)cc2)c(-c2ccc(C(=O)NCC3CC3)nc2C(=O)OC(C)OC(=O)OCC2COC(C)(C)O2)cc1OC (stereo not drawn) [Compound 87a, 1-((((2,2-dimethyl-1,3-dioxolan-4-yl)methoxy)carbonyl)oxy)ethyl 6-((cyclopropylmethyl)carbamoyl)-3-(2-((4-(N-((hexyloxy)carbonyl)carbamimidoyl)phenyl)carbamoyl)-5-methoxy-4-vinylphenyl)picolinate] | B (B = 1,001-10,000 ng/mL)
C=Cc1cc(C(=O)Nc2ccc(C(=N)NC(=O)OCc3oc(=O)oc3C)cc2)c(-c2ccc(C(=O)NCC3CC3)nc2C(=O)O)cc1OC [Compound 44b, 6-((cyclopropylmethyl)carbamoyl)-3-(5-methoxy-2-((4-(N-(((5-methyl-2-oxo-1,3-dioxol-4-yl)methoxy)carbonyl)carbamimidoyl)phenyl)carbamoyl)-4-vinylphenyl)picolinic acid] | A (A = 0-1,000 ng/mL)
C=Cc1cc(C(=O)Nc2ccc(C(=N)NC(=O)OCOC(=O)[C@@H](N)C(C)C)cc2)c(-c2ccc(C(=O)NCC3CC3)nc2C(=O)OCOC(=O)[C@@H](N)C(C)C)cc1OC [Compound 74e, (((S)-2-amino-3-methylbutanoyl)oxy)methyl 3-(2-((4-(N—(((((S)-2-amino-3-methylbutanoyl)oxy)methoxy)carbonyl)carbamimidoyl)phenyl)carbamoyl)-5-methoxy-4-vinylphenyl)-6-((cyclopropylmethyl)carbamoyl)picolinate] | B (B = 1,001-10,000 ng/mL)
C=Cc1cc(C(=O)Nc2ccc(C(=N)NC(=O)OCCCCCC)cc2)c(-c2ccc(C(=O)NCC3CC3)nc2C(=O)OCOC(=O)[C@@H](N)CCC(=O)O)cc1OC [Compound 61d, (S)-4-amino-5-(((6-((cyclopropylmethyl)carbamoyl)-3-(2-((4-(N-((hexyloxy)carbonyl)carbamimidoyl)phenyl)carbamoyl)-5-methoxy-4-vinylphenyl)picolinoyl)oxy)methoxy)-5-oxopentanoic acid] | A (A = 0-1,000 ng/mL)
C=Cc1cc(C(=O)Nc2ccc(C(=N)N)cc2)c(-c2ccc(C(=O)NCC3CC3)nc2C(=O)OC)cc1OC.CS(=O)(=O)O [Compound 1o, Methyl 3-[2-(4-carbamimidoylphenylcarbamoyl)-5-methoxy-4-vinylphenyl]-6-(cyclopropylmethylcarbamoyl)pyridine-2-carboxylate methanesulfonate] | A (A = 0-1,000 ng/mL)
C=Cc1cc(C(=O)Nc2ccc(C(=N)NC(=O)OCCCCCC)cc2)c(-c2ccc(C(=O)NCC3CC3)nc2C(=O)OCOC(=O)[C@@H](N)[C@@H](C)CC)cc1OC [Compound 62d, (((2S,3S)-2-amino-3-methylpentanoyl)oxy)methyl 6-((cyclopropylmethyl)carbamoyl)-3-(2-((4-(N-((hexyloxy)carbonyl)carbamimidoyl)phenyl)carbamoyl)-5-methoxy-4-vinylphenyl)picolinate] | B (B = 1,001-10,000 ng/mL)
C=Cc1cc(C(=O)Nc2ccc(C(=N)NC(=O)OC[C@H]3OC[C@H](O)[C@@H]3O)cc2)c(-c2ccc(C(=O)NCC3CC3)nc2C(=O)OC(C)OC(=O)C(C)C)cc1OC (stereo partly drawn) [Compound 98e, 1-(isobutyryloxy)ethyl 6-((cyclopropylmethyl)carbamoyl)-3-(2-((4-(N-((((2R,3S,4S)-3,4-dihydroxytetrahydrofuran-2-yl)methoxy)carbonyl)carbamimidoyl)phenyl)carbamoyl)-5-methoxy-4-vinylphenyl)picolinate] | A (A = 0-1,000 ng/mL)
C=Cc1cc(C(=O)Nc2ccc(C(=N)NC(=O)OCCCCCC)cc2)c(-c2ccc(C(=O)NCC3CC3)nc2C(=O)OCOC(=O)[C@@H](N)Cc2ccccc2)cc1OC [Compound 69d, (S)-((2-amino-3-phenylpropanoyl)oxy)methyl 6-((cyclopropylmethyl)carbamoyl)-3-(2-((4-(N-((hexyloxy)carbonyl)carbamimidoyl)phenyl)carbamoyl)-5-methoxy-4-vinylphenyl)picolinate] | A (A = 0-1,000 ng/mL)
C=Cc1cc(C(=O)Nc2ccc(C(=N)N)cc2)c(-c2ccc(C(=O)NCC3CC3)nc2C(=O)OCC(C)OC(=O)[C@@H](N)C(C)C)cc1OC (stereo partly drawn) [Compound 18e, 2-(((S)-2-amino-3-methylbutanoyl)oxy)propyl 3-(2-((4-carbamimidoylphenyl)carbamoyl)-5-methoxy-4-vinylphenyl)-6-((cyclopropylmethyl)carbamoyl)picolinate] | A (A = 0-1,000 ng/mL)
C=Cc1cc(C(=O)Nc2ccc(C(=N)N)cc2)c(-c2ccc(C(=O)NCC3CC3)nc2C(=O)OC[C@@H](C)OC(=O)[C@@H](N)C(C)C)cc1OC (single isomer, unassigned) [Compound 18g] | A (A = 0-1,000 ng/mL)
C=Cc1cc(C(=O)Nc2ccc(C(=N)NC(=O)OCCCCCC)cc2)c(-c2ccc(C(=O)NCC3CC3)nc2C(=O)OCc2oc(=O)oc2C)cc1OC [Compound 35a, (5-methyl-2-oxo-1,3-dioxol-4-yl)methyl 6-((cyclopropylmethyl)carbamoyl)-3-(2-((4-(N-((hexyloxy)carbonyl)carbamimidoyl)phenyl)carbamoyl)-5-methoxy-4-vinylphenyl)picolinate] | B (B = 1,001-10,000 ng/mL)
C=Cc1cc(C(=O)Nc2ccc(C(=N)NC(=O)OC[C@@H]3CCC(=O)N3)cc2)c(-c2ccc(C(=O)NCC3CC3)nc2C(=O)OC(C)OC(=O)C(C)C)cc1OC (stereo partly drawn) [Compound 103c, 1-(isobutyryloxy)ethyl 6-((cyclopropylmethyl)carbamoyl)-3-(5-methoxy-2-((4-(N—((((S)-5-oxopyrrolidin-2-yl)methoxy)carbonyl)carbamimidoyl)phenyl)carbamoyl)-4-vinylphenyl)picolinate] | A (A = 0-1,000 ng/mL)
C=Cc1cc(C(=O)Nc2ccc(C(=N)NC(=O)OCCC(=O)O)cc2)c(-c2ccc(C(=O)NCC3CC3)nc2C(=O)OC(C)OC(=O)OC(C)C)cc1OC (stereo not drawn) [Compound 71a, 3-((((4-(2-(6-((cyclopropylmethyl)carbamoyl)-2-((1-((isopropoxycarbonyl)oxy)ethoxy)carbonyl)pyridin-3-yl)-4-methoxy-5-vinylbenzamido)phenyl)(imino)methyl)carbamoyl)oxy)propanoic acid] | A (A = 0-1,000 ng/mL)

Same assay, conditions: single oral dose 10 mg/kg, fasted male Sprague Dawley rats; plasma analyzed for the parent compound; study duration 12 h

Compound | AUC0-last hour (area under the curve)
C=Cc1cc(C(=O)Nc2ccc(C(=N)N)cc2)c(-c2ccc(C(=O)NCC3CC3)nc2C(=O)OCc2oc(=O)oc2C)cc1OC [Compound 19d, (5-methyl-2-oxo-1,3-dioxol-4-yl)methyl 3-(2-((4-carbamimidoylphenyl)carbamoyl)-5-methoxy-4-vinylphenyl)-6-((cyclopropylmethyl)carbamoyl)picolinate] | A (A = 0-1,000 ng/mL)
C=Cc1cc(C(=O)Nc2ccc(C(=N)N)cc2)c(-c2ccc(C(=O)NCC3CC3)nc2C(=O)OCCN2CCOCC2)cc1OC.Cl [Compound 2d, 2-morpholinoethyl 3-(2-((4-carbamimidoylphenyl)carbamoyl)-5-methoxy-4-vinylphenyl)-6-((cyclopropylmethyl)carbamoyl)picolinate hydrochloride] | A (A = 0-1,000 ng/mL)
C=Cc1cc(C(=O)Nc2ccc(C(=N)N)cc2)c(-c2ccc(C(=O)NCC3CC3)nc2C(=O)OCOC(=O)C(C)(C)C)cc1OC [Compound 15d, (pivaloyloxy)methyl 3-(2-((4-carbamimidoylphenyl)carbamoyl)-5-methoxy-4-vinylphenyl)-6-((cyclopropylmethyl)carbamoyl)picolinate] | A (A = 0-1,000 ng/mL)

Source: patent US20210198204A1, “PRODRUGS OF KALLIKREIN INHIBITORS” (BioCryst Pharmaceuticals, Inc., priority 2016, published 2021)
